Experimental data taken from patent publication US20190381127A1, “COMBINATION THERAPY WITH A6, CHEMOTHERAPEUTIC AGENTS, RADIATION THERAPY, OR A COMBINATION THEREOF FOR THE TREATMENT OF CANCER” (Splash Pharmaceuticals, Inc., priority 2016, published 2019).

What was measured:
[1] = system: advanced gynecologic cancer; assay: Phase 1b trial in advanced gynecologic cancer
Procedure: Advanced Gynecologic Cancer: A Phase 1b trial, was conducted in women with advanced gynecologic cancer. […] The study used a sequential dose-escalation design, with the lowest-dose group (4 patients) receiving A6 for cycles of 14 days “on” followed by 14 days “off”, a regimen not expected to produce any therapeutic effect. […] Patients continued treatment until disease progression or unacceptable toxicity. Response was evaluated as defined by RECIST and the Gynecologic Cancer Intergroup (GCIG) CA-125 response criteria.

B16F10-DsRed cells = assay: B16F10-DsRed Cell Lung Metastasis Model; assay type: in vivo, C57BL/6 mice; conditions: for tumor burden in the lungs: A6 200 mg/Kg SC QD, day 12
Procedure: B16F10-DsRed cells were harvested from cells culture. 1×10^6 cells/200 μl were inoculated into DPBS/mouse via bilateral tail vein in 48 female C57BL/6 mice (Charles River).
Mice were randomized into six groups: Grp1 no treatment, Grp2 PTX (10 mg/Kg, IP on days 1 and 8), Grp3 DDP (4 mg/Kg, IP, day 1, 4 and 8), Grp4 A6 (200 mg/Kg, SC, QD), Grp5 A6 plus PTX, Grp6 A6 plus DDP. Animals were weighed before dosing and then twice a week.
Dosing: A6 dosing started immediately after cell inoculation and consecutively for 11 days; DDP/PTX dosing started immediately after inoculation and then on days as above. The study was ended on day 12, and the lungs were harvested to determine metastatic burden.

[2] = system: endometrial cancer with metastases to lymph nodes and lungs; assay: Compassionate use, endometrial cancer patient; assay type: in vivo, human
Procedure: A second compassionate use patient was administered A6. The patient was diagnosed with endometrial cancer with metastases to lymph nodes and lungs. The patient underwent a hysterectomy followed by cisplatin and paclitaxel regimen. The patient started A6 1.5 mg/kg/day and continued on this regimen for 2 years with intermittent radiation therapy to the mediastinum to a total dose of 5,000 cGy. […] A6 increased to 2.0 mg/kg/day.

[3] = human, in vivo
IGROV-1 cells = assay: CCK-8 cytotoxicity, A6 plus DDP; assay type: cell-based, human; conditions: A6 1, 10 or 100 μM 1 h, then 1 h A6 plus DDP
Procedure: Drugs: DDP (3.33 mM stock) and A6 (109.8 mM stock); Drug exposure time: 1 hour; Cell line: IGROV-1 and its DDP-resistant subline IGROV-1/CP; Media: RPMI 1640 plus 10% FBS containing 1 mM penicillin/streptomycin; Cytotoxicity Assays: CCK-8 (Cell Counting Kit 8—Dojindo Molecular Technologies).
Tissue culture plates containing 96-well plates were seeded with 4000 cells in 100 μl of media per well. The wells on rows A-D were seeded with IGROV-1 cells, while the wells on rows E-H were seeded with IGROV-1/CP cells. The cells were allowed to attach overnight in a 37° C. in 5% CO2 incubator. Approximately 24 h later medium was removed by aspiration and the cells were exposed to 0, 1, 10 or 100 μM A6 peptide in 100 μl. After 1 h, increasing concentrations of DDP were added to triplicate wells in 100 pa medium. Following a 1 h exposure to the combination of A6 and DDP, the drugs were removed by aspiration. The cells were then allowed to grow for 96 h following which the plates were assayed for relative cell growth with the CCK-8 assay.
CCK-8 assay. Five pi of CCK-8 stain was added to each well and the plate was incubated at 37° C. incubator for 4 h. The plate was read with a microplate reader at a wavelength of 450 nm.
(§1) The assay was performed using triplicate wells for each DDP concentration. […]

CD44 [4] = biological target: T1, CD44 (Homo sapiens, UniProt P16070); assay: Cross-linking, immunoprecipitation and immunoblotting of SKOV3 lysates; assay type: binding; conditions: SKOV3 cells bound and cross-linked to A6
T1 sequence (P16070 21-742): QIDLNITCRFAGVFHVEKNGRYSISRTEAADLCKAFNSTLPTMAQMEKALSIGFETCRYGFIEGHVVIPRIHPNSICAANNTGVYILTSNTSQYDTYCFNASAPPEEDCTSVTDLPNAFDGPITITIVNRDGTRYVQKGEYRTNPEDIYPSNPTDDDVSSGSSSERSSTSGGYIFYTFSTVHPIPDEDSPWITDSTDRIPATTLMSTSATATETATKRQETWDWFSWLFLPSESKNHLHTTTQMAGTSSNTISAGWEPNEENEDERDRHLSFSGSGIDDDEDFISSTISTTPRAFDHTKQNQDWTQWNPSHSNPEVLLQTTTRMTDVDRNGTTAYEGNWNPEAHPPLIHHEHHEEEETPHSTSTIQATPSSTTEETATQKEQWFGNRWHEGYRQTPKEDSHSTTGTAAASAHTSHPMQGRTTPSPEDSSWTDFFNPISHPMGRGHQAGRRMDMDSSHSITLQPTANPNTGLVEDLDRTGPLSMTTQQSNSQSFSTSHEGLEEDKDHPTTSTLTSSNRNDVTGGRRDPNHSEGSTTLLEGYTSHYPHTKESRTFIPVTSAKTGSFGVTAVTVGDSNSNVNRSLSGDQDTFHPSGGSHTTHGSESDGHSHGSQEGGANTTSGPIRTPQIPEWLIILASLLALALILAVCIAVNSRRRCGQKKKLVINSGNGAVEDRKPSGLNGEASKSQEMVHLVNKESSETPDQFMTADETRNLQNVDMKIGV
Procedure: (§2) Human ovarian SKOV3 cells were bound and cross-linked to A6. […] To determine if this binding influenced CD44-mediated activity, and to determine if a functional relationship existed between A6 and CD44, intracellular signaling studies were conducted.

B16-F10 melanoma cells = assay: B16-F10 lung metastatic model; assay type: in vivo, C57BL/6 mice; conditions: tail vein injection; lungs evaluated at day 11
Procedure: Melanoma: The well characterized B16-F 10 lung metastatic model was employed to determine the ability of A6 to inhibit the colonization of secondary tissues by circulating cancer cells. […] Melanoma cells were injected into the tail veins of C57BL/6 mice to simulate a burden of metastasizing cells and the lungs were then evaluated for lesions at day 11.

[5] = system: HEY/C2 (DDP resistant) cells; assay: CCK-8 cytotoxicity of DDP/PTX with or without A6; assay type: cell-based; conditions: 100 μM A6; 72 hours; 10% FBS
Procedure: The cells were plated in 96-well plates as described and incubated overnight. […] The CCK-8 assay described herein was performed to access cytotoxicity of DDP/PTX.

[6] = system: persistent or recurrent epithelial ovarian, fallopian tube, or primary peritoneal carcinoma; assay: Phase 2 trial, persistent or recurrent ovarian cancer
Procedure: Persistent or Recurrent Ovarian Cancer: A Phase 2 trial was conducted in patients with persistent or recurrent epithelial ovarian, fallopian tube, or primary peritoneal carcinoma to evaluate A6 in a patient population with a disease burden greater than that presented in the previously described MOR trial. Patients had received one prior platinum-based chemotherapeutic regimen and were allowed to have received one additional cytotoxic regimen for the management of recurrent or persistent disease. Patients received a 150 mg twice daily subcutaneous dose of A6 and continued on treatment until disease progression or unacceptable toxicity. Response criteria were as defined by RECIST. Primary measures of clinical efficacy were objective tumor response and PFS at 6 months compared to a historical Gynecologic Oncology Group (GOG) dataset based on a similar population of patients.

[7] = system: Mat B-111 syngeneic mammary carcinoma cells; assay: Syngeneic mammary carcinoma model; parameters: species or system Fisher rats; conditions: rat, in vivo
Procedure: Mammary: The effects of A6 in mammary tumor and metastasis models were investigated. […] The effect of A6 in Fisher rats inoculated with Mat B-111 syngeneic mammary carcinoma cells was evaluated.

[8] = system: bovine retinal microvascular endothelial cells; assay: Retinal endothelial cell VE-cadherin / MMP study; assay type: cell-based
2008/C13*5.25 cells = assay: CCK-8 cytotoxicity, A6 plus DDP; assay type: cell-based, human; conditions: A6 1, 10 or 100 μM 1 h, then 1 h A6 plus DDP; 10% FBS
Procedure: (§3) Conditions: Drugs: DDP (3.33 mM stock) and A6 (109.8 mM stock); Drug exposure time: 1 hour ; Cell line: 2008 and its DDP-resistant subline 2008/C31*5.25; Media: RPMI 1640 plus 10% FBS containing 1 mM penicillin/streptomycin; Cytotoxicity Assays: CCK-8 (Cell Counting Kit 8—Dojindo Molecular Technologies).
(§4) Tissue culture plates containing 96-well plates were seeded with 3000 cells in 100 μl of media per well. The wells on rows A-D were seeded with 2008 cells, while the wells on rows E-H were seeded with 2008/C13*5.25 cells. The cells were allowed to attach overnight in a 37° C. in 5% CO2 incubator. Approximately 24 h later medium was removed by aspiration and the cells were exposed to 0, 1, 10 or 100 μM A6 peptide in 100 μl. After 1 h, increasing concentrations of DDP were added to triplicate wells in 100 μl medium. Following a 1 h exposure to the combination of A6 and DDP, the drugs were removed by aspiration. The cells were then allowed to grow for 96 h following which the plates were assayed for relative cell growth with the CCK-8 assay.
(§5) CCK-8 assay. Five μl of CCK-8 stain was added to each well and the plate was incubated at 37° C. incubator for 4 h. The plate was read with a microplate reader at a wavelength of 450 nm.
as §1

[9] = system: FAK phosphorylation in CD44-positive SKOV3 cells; assay: FAK phosphorylation signaling study; assay type: cell-based, human
Procedure: as §2

CD44 [10] = biological target: T1, CD44; assay: Perturbation of anti-CD44 antibody binding to SKOV3 cells
2008 cells = assay: CCK-8 cytotoxicity, A6 plus DDP; assay type: cell-based, human; conditions: A6 1, 10 or 100 μM 1 h, then 1 h A6 plus DDP; 10% FBS
Procedure: as §3, §4, §5, §1

[11] = system: HEY (DDP sensitive) cells; assay: CCK-8 cytotoxicity of DDP/PTX with or without A6; assay type: cell-based; conditions: 100 μM A6; 72 hours; 10% FBS
Procedure: Effect of A6 plus Cisplatin (DDP) or Paclitaxel (PTX) in HEY (DDP sensitive) and HEY/C2 (DDP resistant) cells was tested. The cells were plated in 96-well plates as described and incubated overnight. The cells were treating with various doses of DDP/PTX in the absence or presence of 100 μM A6 in culture medium containing 10% FBS and incubated for 72 hours. The CCK-8 assay described herein was performed to access cytotoxicity of DDP/PTX.

U87MG human glioma cells = assay: Subcutaneous glioma xenograft; assay type: in vivo, BALB/c (nu/nu) mice
Procedure: Glioblastoma: In animal models of glioblastoma, U87MG human glioma cells were implanted subcutaneously or intracranially in BALB/c (nu/nu) mice and the animals were divided into different treatment groups. […] In this study the effects of cisplatin were also examined.

[12] = 150 mg twice daily subcutaneous

Substance: Ac-KPSSPPEE-NH2 [A6, Ac-KPSSPPEE-NH2]
- median time to progression (TTP) ([1]; continuous treatment): 78 days
- safety outcome ([1]; in vivo): no specific toxicity profile
- median time to progression (TTP) ([1]; intermittent therapy (14 days on, 14 days off)): 44 days
- patients with disease stabilization ([1]; patients dosed continuously): Greater than 40%
- tumor burden in the lungs (B16F10-DsRed cells; in the presence or absence of cisplatin): not significantly reduced
- tumor burden in the lungs (B16F10-DsRed cells; in the presence or absence of paclitaxel, 200 mg/kg): not significantly reduce
- antimetastatic activity of cisplatin or paclitaxel on addition of A6 (B16F10-DsRed cells; mouse, in vivo): did not increase antimetastatic activity
- clinical outcome ([2]; 10+ years of biannual testing): no evidence of disease
- disease status ([2]; A6 1.5 mg/kg/day for 2 years with intermittent radiation therapy): Stable disease
- CA-125 ([2]; after A6 dose reduced to 0.25-0.5 mg/kg/day, increased from 25): 71 U/ml
- CA-125 ([2]; after A6 increased to 2.0 mg/kg/day): 22 U/ml
- CA-125, subsequent follow up ([2]; subsequent follow up): below 25 U/ml
- half-life [3]: 1.8 to 2 h
- modulation of sensitivity to DDP (IGROV-1 cells): failed to modulate the sensitivity
- direct interaction with CD44 (CD44 [4]): binding to CD44
- number of lung metastases, % of control (B16-F10 melanoma cells): 50%
- sensitivity of cells to cisplatin [5]: did not affect sensitivity
- sensitivity of cells to paclitaxel [5]: did not affect sensitivity
- evaluable patients achieving stable disease [6, 12]: 36%
- patients progression free for at least 6 months [6, 12]: 6.5%
- objective tumor response ([6]; 150 mg twice daily subcutaneous, 31 eligible patients): no responses were observed
- tolerability ([6]; in vivo): well tolerated
- lymph node metastasis [7]: markedly suppressed
- MMP dependent VE-cadherin degradation and loss of permeability [8]: inhibit MMP dependent VE-cadherin degradation and the loss of permeability
- secretion and activation of MMP-2 and MMP-9 [8]: prevented the secretion and activation
- modulation of sensitivity to DDP (2008/C13*5.25 cells): failed to modulate the sensitivity
- FAK phosphorylation [9]: modulate FAK phosphorylation
- binding of the anti-CD44 antibody DF1485 to CD44-expressing SKOV3 cells (CD44 [10]; antibody DF1485): partial inhibition
- binding of the anti-CD44 antibody IM7 (CD44 [10]; antibody IM7): did not interfere
- modulation of sensitivity to DDP (2008 cells): failed to modulate the sensitivity
- adverse events (human, in vivo): no systemic drug-related adverse events
- cumulative increase in concentration over time (human, in vivo): no cumulative increase in concentration over time was detected
- anti-A6 antibody production (subcutaneous twice daily for 6 days, day 14): no anti-A6 antibody production was detected
- sensitivity of cells to cisplatin [11]: did not affect sensitivity
- sensitivity of cells to paclitaxel [11]: did not affect sensitivity
- time to progression following discontinuation of treatment (U87MG human glioma cells): prolonged the time to progression
